{"source": "patent US20230014782A1", "about": "“NEW SOLID STATE FORM OF LURBINECTEDIN” (PHARMA MAR, S.A., priority 2019, published 2023)", "key": {"[1]": {"assay": "Maximum solubility of lurbinectedin in different molarities of lactic acid", "format": "physicochemical", "description": "As such, in embodiments, a concentrated lurbinectedin solution is prepared in organic acid before addition of other excipients. In preferred embodiments, the organic acid has a pH less than 4, preferably less than 3.5, more preferably less than 3, or around 3. The maximum solubility of lurbinectedin was investigated in different molarities of the organic acid lactic acid. […] In a preferred embodiment, lurbinectedin is dissolved in an organic acid with a molarity of around 0.1 M to 0.5 M, preferably around 0.2 M to 0.4 M, more preferably around 0.3 M organic acid. An exemplary molarity is 0.31 M organic acid."}, "[2]": {"assay": "Mixing of the concentrated lurbinectedin solution with buffer solution, precipitation", "format": "physicochemical", "conditions": "high concentration lurbinectedin solution (8.3 mg/mL in 0.1M lactic acid)", "description": "In embodiments, a multi-step compounding strategy is used to prepare lurbinectedin. Step 1 is the pre-dissolution step described above, for example: pre-dissolving partly crystalline lurbinectedin in lactic acid 0.31M at 25 mg/mL and diluting 3× with WFI to obtain the concentrated solution at 8.3 mg/mL in 0.1M lactic acid. To avoid precipitation of lurbinectedin, the remaining excipients should have acid pH when added to the compounding formulation. […] As such, in Step 2, an organic buffer solution containing the bulking agent (eg disaccharide) may be prepared at suitable pH. By way of example, this may comprise the preparation of a 0.04 M sodium lactate buffer at pH of around 4.2 containing sucrose. In step 3, the solutions from step 1 and step 2 are combined to form the final bulk solution. The final bulk solution may be adjusted with WFI to achieve the final target weight. By way of example, in step 3, the 8.3 mg/mL lurbinectedin concentrated solution in 0.1M lactic acid with pH≈3 is diluted with 0.04M sodium lactate buffer pH≈4.2 containing sucrose. The final bulk solution composition after adjustment of WFI to final weight may be, by way of example, 0.5 mg/mL lurbinectedin in 0.03M sodium lactate buffer pH=4+10% (w/v) sucrose. The present invention therefore identifies a compounding strategy to formulate partially crystalline lurbinectedin."}, "[3]": {"test_system": "solid and non-solid tumour cell lines", "conditions": "cited from earlier work"}, "[4]": {"test_system": "xenografted human tumor cell lines", "conditions": "xenografts in mice, such as breast, kidney and ovarian cancer; cited from earlier work"}, "[5]": {"assay": "Electrostatic charge measurements with a Faraday cage", "format": "physicochemical", "conditions": "for Dispersion of charge density (Q/m) / Average charge density (Q/m): Faraday cage, dry nitrogen, ranges with 95% confidence; for Average charge density (Q/m): slope of lineal regression of charge vs mass", "from_the_text": "The electrostatic charges of two batches of form A of lurbinectedin (Batches P04 and R05) and of form B of lurbinectedin (Batch 1924129-LT and 1924128-LT) have been measured using a Faraday cage (See FIG. 8) constructed of stainless steel with concentric spheres with ratios 10, 15 and 20 cm.\nThis technique consists in placing the sample to be measured (q) in the interior of the inner sphere (a) and measuring the difference of potential induced between sphere (a) and another conductor of reference, sphere (b). The external sphere (c) is grounded in order to shield the system. The measurements of the difference of potential were carried out with a precision electrometer (Keithley 617, resolution 10fC.\nMeasurements were carried out under controlled atmosphere of dry nitrogen in order to avoid the effect of ambient humidity on the electrostatic charge of the samples.\nSamples were introduced in glass capsules using non-conductor instrumental to avoid loses of electrostatic charge.\nThe capsules loaded with the samples were introduced in the Faraday cage through a grounded conductor tube to avoid parasitic static charges in the glass capsule. The entry and removal of the capsules was done with a computer-controlled servo engine, in order to ensure a constant rate of introduction and removal of the capsules in each measurement to minimize the creation of static charges due to friction of the insulator elements.\nSeveral measurements with different amounts of material were carried out for each batch of each form of lurbinectedin. Before loading the capsules, they were washed and their remaining static charge was measured in order to correct the levels. Each sample was introduced and removed five times and, after each introduction, several consecutive measurements were taken in order to average any possible drift effect. FIGS. 9a and 9b summarized the results of such measurement for each pair of batches of forms A and B of lurbinectedin.\nThe measured charge Q increases with the amount of analyzed material. Both forms of lurbinectedin have a positive electrostatic charge. […] The data was fitted by lineal regression (dashed lines in FIGS. 9a and 9b) to obtain the charge density (Q/m) as the slope of the line. […] All ranges are given with a 95% confidence."}, "[6]": {"assay": "Direct dissolution of lurbinectedin in sodium lactate buffer (dissolution kinetics)", "format": "physicochemical", "description": "In embodiments, the lurbinectedin to be dissolved is at least partially crystalline. The lurbinectedin to be dissolved may be in the solid state form(s) described herein. […] By way of example, while the direct dissolution of amorphous lurbinectedin at 0.5 mg/mL in 0.03 M sodium lactate buffer pH 4 was completed in approximately 30 minutes, partly crystalline lurbinectedin reached only 60-70% of the target concentration in 2 hours, meaning that it had much slower dissolution kinetics."}, "[7]": {"assay": "TG-FTIR thermal degradation", "format": "physicochemical", "conditions": "N2 atmosphere, 25-250° C., 10° C./min", "description": "TG-FTIR experiments were conducted with a Thermo-Microbalance TG-209 (Netzsch) equipped with a FT-IR Spectrometer Vector 22 (Bruker) using Al crucible (open or with microhole) under N2 atmosphere with a heating range between 25 and 250° C. and a heating rate of 10° C./min.\nTG-FTIR indicates degradation above 150° C. for form B of lurbinectedin. A release of 2.6% of water was detected."}, "DSC thermal degradation": {"assay": "DSC thermal degradation", "format": "physicochemical", "conditions": "closed Au crucibles, -50 to 250° C.", "description": "DSC experiments were carried out with a Perkin Elmer DSC 7 using closed Au crucibles with a heating range between −50 to 250° C. and a heating rate of 10 or 20° C./min.\nEstimation of the amorphous content by DSC was not possible. […] A glass transition temperature or melting point was not detected."}, "[8]": {"assay": "Dynamic vapor sorption (DVS)", "format": "physicochemical", "description": "DVS experiments were carried out with a Projekt Messtechnik SPS 11-100n multi-sample water vapor sorption analyzer. The sample was allowed to equilibrate at 50% r.h. before starting a pre-defined humidity program. The program was: • 2 h at 50% r.h. • 50 to 0% r.h. […]\nDVS indicates a continuous water uptake and release with no steps and almost no hysteresis. […] Upon lowering the relative humidity again, the water content decreased and nearly returned to the original mass, see FIG. 5."}}, "data": [{"substance": "lurbinectedin", "values": [{"measurement": "Maximum solubility", "setting": "[1]; 0.05 M lactic acid", "value": 7.2, "unit": "mg/mL"}, {"measurement": "Maximum solubility", "setting": "[1]; 0.5 M lactic acid", "value": 90.4, "unit": "mg/mL"}, {"measurement": "pH of buffer solution that can be mixed without precipitation of lurbinectedin", "setting": "[2]", "value": "≤ 5.6"}, {"measurement": "In vitro activity", "setting": "[3]", "value": "highly potent"}, {"measurement": "In vivo activity", "setting": "[4]", "value": "significant"}]}, {"substance": "lurbinectedin [form A of lurbinectedin]", "values": [{"measurement": "Total static charge relative to form B", "setting": "[5]", "value": "considerably higher"}, {"measurement": "Dispersion of charge density (Q/m)", "setting": "[5]; listed as P04", "value": "7.6 ± 2.8", "unit": "nC/g"}, {"measurement": "Dispersion of charge density (Q/m)", "setting": "[5]; listed as R05", "value": "15.23 ± 5.64", "unit": "nC/g"}, {"measurement": "Average charge density (Q/m)", "setting": "[5]; listed as P04", "value": "43.1 ± 3.86", "unit": "nC/g"}, {"measurement": "Average charge density (Q/m)", "setting": "[5]; listed as R05", "value": "64.02 ± 7.98", "unit": "nC/g"}, {"measurement": "Time to complete direct dissolution", "setting": "[6]; 0.5 mg/mL in 0.03 M sodium lactate buffer pH 4", "value": "approximately 30 minutes"}]}, {"substance": "lurbinectedin [form B of lurbinectedin]", "values": [{"measurement": "Dispersion of charge density (Q/m)", "setting": "[5]; listed as 1924128-LT", "value": "1.01 ± 0.3", "unit": "nC/g"}, {"measurement": "Dispersion of charge density (Q/m)", "setting": "[5]; listed as 1924129-LT", "value": "3.4 ± 1.4", "unit": "nC/g"}, {"measurement": "Average charge density (Q/m)", "setting": "[5]; listed as 1924128-LT", "value": "4.3 ± 0.4", "unit": "nC/g"}, {"measurement": "Average charge density (Q/m)", "setting": "[5]; listed as 1924129-LT", "value": "4.96 ± 2.0", "unit": "nC/g"}, {"measurement": "Average charge density relative to form A", "setting": "[5]; two different batches of each form", "value": "one order of magnitude lower"}, {"measurement": "Fraction of target concentration reached", "setting": "[6]; target 0.5 mg/mL in 0.03 M sodium lactate buffer pH 4, in 2 hours", "value": "60-70%"}, {"measurement": "Degradation temperature (TG-FTIR)", "setting": "[7]", "value": "above 150 °C"}, {"measurement": "Temperature at which degradation begins (DSC)", "setting": "DSC thermal degradation", "value": "above 130 °C"}, {"measurement": "Deliquescence (DVS)", "setting": "[8]", "value": "not deliquescent"}, {"measurement": "Hygroscopicity (DVS)", "setting": "[8]", "value": "hygroscopic"}, {"measurement": "Mass change Δm (water uptake, DVS)", "setting": "[8]; 50 to 96% r.h.", "value": "≈ 4%"}]}]}
